Laboratory results from patent US20250000767A1, “FORMULATIONS AND METHODS FOR SKIN REGENERATION” (ENTRINSIC, LLC, priority 2023, published 2025).

How the values were obtained:
Assay type in all cases: cell-based, human
[1] = test system: skin barrier marker genes in differentiated NHEK; assay: comparative analysis of qPCR data from two donors with scoring system, single amino acids; details: for ranking as most effective or least effective amino acids (scoring system): qPCR data from two donors
Excerpt: The scoring system was developed to address the numerous variables arising from the experimental results. […] See, e.g., FIGS. 3 and 4.
(§1) To test the effect of amino acid treatment on epithelial skin barrier, a cellular model of differentiated normal human epidermal keratinocytes (NHEK) was utilized. Commercially available NHEK (ATCC), derived from three diverse healthy donors, were used.

[2] = test system: EGF, PDGF, FGF2, and PPARD genes (skin barrier markers); assay: single amino acids and combinations on barrier marker genes EGF, FGF2, PDGF, PPARD in differentiated NHEK (FIG. 28); details: alone or in combination; action on skin barrier markers
Experimental: Treatment time-4 h. […] Exemplary barrier marker genes examined as follows: Epidermal growth factor (EGF); fibroblast growth factor 2 (FGF2); platelet derived growth factor (PDGF); Peroxisome Proliferator Activated Receptor Delta (PPARD).
Once the skin barrier marker panel was identified, a scoring system by which to evaluate different amino acids or combinations thereof under consideration was developed. The scoring system was developed to address the numerous variables arising from the experimental results. […] Sec, e.g., FIG. 28. […] See, e.g., FIG. 29.
as §1
The marker genes: epidermal growth factor (EGF); platelet-derived growth factor (PDGF), fibroblast growth factor 2 (FGF2), peroxisome proliferator activated receptor delta (PPARD).
Amino acid(s) are mixed in previously established concentrations in water and added to amino acid-deprived culture medium.
mRNA is extracted, converted to cDNA, and analyzed by qPCR method using custom TaqMan array 384-well plates (Thermo Fisher Scientific) containing the above-mentioned genes. Control housekeeping genes were included to normalize the mRNA expression: GAPDH and/or YWHAZ. The array plate contained the genes and samples were analyzed in by qPCR.

[3] = test system: TGFB mRNA; assay: TGFB mRNA fold change in donor keratinocytes, 4GAA and retinol (qPCR); details: 4 h, amino acid-deprived medium, 4GAA 4 mM, ROL 10 μM
Experimental: (§2) FIGS. 17A-17C show the fold change of a specific gene mRNA comparing the 4 amino acid combination (Ala, Gln, Gly, Ser; 4GAA; 4 mM), and retinol (ROL; 10 μM), alone or in combination, to control (CTR; untreated control without amino acids or retinol) with Donor E, Donor G. Donor O, Donor R, and Donor T human-derived epidermal keratinocytes (NHEK) with a 4 h treatment in amino acid (AA)-deprived medium. The data are shown in graphical form showing CTR; 4GAA (4 mM); ROL (10 μM); 4GAA (4 mM)+ROL (10 μM) combination.
(§3) Keratinocytes from different donors (e.g., human-derived epidermal keratinocytes (NHEK)), skin equivalents (e.g., 3D models (human epidermal skin equivalents)), or fibroblasts (e.g., human dermal fibroblasts, adult (HDFa)) were cultured in amino acid-deprived media or complete media for 4 hours or 24 hours after complete differentiation and, in parallel, were treated with an amino acid combination (4GAA; alanine, glutamine, glycine, serine) at 4 mM, 10 μM retinol (ROL), or the combination of 4 mM 4GAA and 10 μM ROL. Cells were harvested, RNA was extracted, and qPCR analysis was performed with a housekeeping gene, e.g., GAPDH.
(§4) FIGS. 17A-17C and 18A-18C show the graphical results of the fold change, where the average fold change is depicted by the horizontal bar for each condition and each of the donors (Donors E, G, O, R, T) is depicted by a colored circle. […]

[4] = test system: COL1A1 mRNA; assay: COL1A1 mRNA fold change in donor keratinocytes, 4GAA and retinol (qPCR); details: 4 h, amino acid-deprived medium, 4GAA 4 mM, ROL 10 μM
Experimental: as §2, §3, §4

[5] = test system: HAS2 mRNA; assay: HAS2 mRNA fold change in donor keratinocytes, 4GAA and retinol (qPCR); details: 4GAA 4 mM, ROL 10 μM
Experimental: (§5) FIGS. 18A-18C show the fold change of a specific gene mRNA comparing the 4 amino acid combination (Ala, Gln, Gly, Ser; 4GAA; 4 mM), and retinol (ROL; 10 μM), alone or in combination with Donor E. Donor G. Donor O. Donor R. and Donor T human-derived epidermal keratinocytes (NHEK) to control (CTR; untreated control without amino acids or retinol) with a 4 h treatment in amino acid (AA)-deprived medium. The data of FIGS. 18A-18C are shown in graphical form showing CTR; 4GAA (4 mM); ROL (10 μM); 4GAA (4 mM)+ROL (10 μM) combination. […] FIGS. 18D-18F show the data in tabular form (Donor E (n=3). Donor G (n=3). Donor O (n=3). Donor R (n=3), and Donor T (n=3)) for fold change of HAS1 mRNA. HAS2 mRNA, and HAS3 mRNA, respectively, and in tabular form showing the fold change for each of the specified conditions under each respective graphical form.
(§6) FIGS. 19A-19D show the fold change of a specific gene mRNA comparing the 4 amino acid combination (Ala. Gln. Gly, Ser; 4GAA; 4 mM), and retinol (ROL; 10 μM), alone or in combination to control (CTR; untreated control without amino acids or retinol) with Donor O human-derived epidermal keratinocytes (NHEK) with a 24 h treatment in complete medium. The data of FIGS. 19A-19D are shown in graphical form showing CTR; 4GAA (4 mM); ROL (10 μM); 4GAA (4 mM)+ROL (10 μM) combination. […]

[6] = test system: HAS3 mRNA; assay: HAS3 mRNA fold change in donor keratinocytes, 4GAA and retinol (qPCR); details: 4GAA 4 mM, ROL 10 μM
Experimental: as §5, §6

[7] = Donor O and Donor R keratinocytes, 24 h, complete medium
[8] = donor keratinocytes, 4 h, amino acid-deprived medium

| Compound | ranking as most effective or least effective amino acids (scoring system) [1] | effect on skin regeneration including skin barrier function [2] | further results |
| --- | --- | --- | --- |
| C[C@H](N)C(=O)O [Ala, alanine] | most effective | beneficial effect | – |
| N=C(N)NCCC[C@H](N)C(=O)O [Arg, arginine] | – | beneficial effect | effects in preliminary screens [1]: positive effects |
| N[C@@H](CC(=O)O)C(=O)O [Asp, aspartic acid] | least effective | – | – |
| N[C@@H](CS)C(=O)O [Cys, cysteine] | least effective | – | – |
| NC(=O)CC[C@H](N)C(=O)O [Gln, glutamine] | most effective | beneficial effect | – |
| NCC(=O)O [Gly, glycine] | most effective | beneficial effect | – |
| O=C(O)[C@@H]1CCCN1 [Pro] | least effective | – | – |
| CC1=C(/C=C/C(C)=C/C=C/C(C)=C/CO)C(C)(C)CCC1 [ROL, retinol] | – | – | TGFB mRNA expression [3]: upregulated; COL1A1 mRNA expression [4]: upregulated; HAS2 mRNA gene expression [5, 7]: upregulated; HAS2 gene expression [5, 8]: upregulated; HAS3 mRNA gene expression [6, 7]: upregulated; HAS3 gene expression [6, 8]: upregulated |
| N[C@@H](CO)C(=O)O [Ser, serine] | most effective | beneficial effect | – |
| C[C@@H](O)[C@H](N)C(=O)O [Thr, threonine] | least effective | beneficial effect | – |
| N[C@@H](Cc1c[nH]c2ccccc12)C(=O)O [Trp, tryptophan] | – | beneficial effect | effects in preliminary screens [1]: positive effects |
| N[C@@H](Cc1ccc(O)cc1)C(=O)O [Tyr, tyrosine] | least effective | – | – |
| CC[C@H](C)[C@H](N)C(=O)O [isoleucine] | – | beneficial effect | – |
| CC(C)[C@H](N)C(=O)O [valine] | – | beneficial effect | – |
